Broadly, the Kd is the free concentration of one partner at which half of the binding sites on the other are occupied at equilibrium, for simple one-to-one binding. A high value points to a looser complex.

In the assay the target is CcapOBP83a-2 (Ceratitis capitata, UniProt W8W3U3). Kind of assay: Binding of fluorescent probe 1-NPN to CcapOBP83a-2 (fluorescence titration). Conditions: for Kd: dissociation constant (KD) of 1-NPN, protein 2 μM, 20 mM Tris–HCl pH 7.4; for saturation level of 1-NPN: protein concentration ≈2 μM. As to the method:
To measure the binding affinity of the fluorescent probe 1-NPN to CcapOBP83a-2, a 2 μM solution of protein in 20 mM Tris–HCl pH 7.4 was titrated with aliquots of 1 mM 1-NPN stock to a final concentration of 0.1–50 μM in methanol. The 1-NPN/protein mixture was excited at 337 nm and the emission was recorded between 380 and 450 nm on a Perkin Elmer LS 55 Fluorescence spectrometer (Cambridge–UK) at 25 °C in a right angle configuration with a 1 cm light path quartz cuvette. The excitation and emission slits were both 5 nm. Data were recorded and graphed using FL WinLab Software (Perkin–Elmer). The affinity of other ligands was measured in competitive binding assays, using 1-NPN as fluorescent reporter at 3 μM concentration and final concentrations of each competitor from 0.1 μM to 50 μM. To determine binding constants, the fluorescent intensity values at the maximum emission (after subtracting those measured without protein) were plotted against free ligand concentrations. […] IC50 values (the concentration of ligand halving the initial fluorescence level) were used to calculate each competitor dissociation constants (KD), by the equation: KD = IC50/1 + [1 − NPN]/K1-NPN, where [1 − NPN] is the free concentration of 1 − NPN and K1-NPN is the dissociation constant of the 1-NPN/protein complex. Analyses were performed by nonlinear regression curve fitting using GraphPad Prism 5 (GraphPad Software, Inc, La Jolla, USA).

Each structure is given as a SMILES string. Values joined by “and” are separate entries in the source; they are usually repeats but may differ in a detail not shown here. Equal entries are not always repeated.

Chain of CcapOBP83a-2 (W8W3U3 entry or part of it): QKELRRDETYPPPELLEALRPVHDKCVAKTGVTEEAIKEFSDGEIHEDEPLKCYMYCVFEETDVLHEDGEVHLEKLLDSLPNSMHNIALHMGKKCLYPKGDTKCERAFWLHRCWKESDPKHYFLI

Turning to `c1ccc(Nc2cccc3ccccc23)cc1` [1-NPN, N-phenyl-1-naphthylamine], the Kd is, setting by setting: (first fraction of CcapOBP83a-2) 10500 ± 1400 nM; (second fraction of CcapOBP83a-2) 600 nM and 617 nM. Besides, the “saturation level of 1-NPN” value is, setting by setting: (first fraction) 10 to 20 µM; (second fraction) 5 to 10 µM.

Values taken from paper PMC4003389, “Identification of pheromone components and their binding affinity to the odorant binding protein CcapOBP83a-2 of the Mediterranean fruit fly, Ceratitis capitata” (Insect Biochemistry and Molecular Biology, 2014).
